Experimental data as given in the NIST ThermoML archive (doi:10.1016/j.jct.2004.06.009).
± gives the expanded uncertainty stated by the source.

Row | Triple point temperature (Crystal 1) | Triple point temperature (Crystal 2) | Triple point temperature (Crystal) | Compound
1 | 247.79 ± 0.16 K | 223.38 ± 0.16 K | – | CC12CC3CC(C1)CC(C)(C3)C2 [1,3-dimethyladamantane]
2 | – | – | 225.56 ± 0.16 K | CCC12CC3CC(CC(C3)C1)C2 [1-ethyladamantane]
